Values of other authors, collected in publication PMC11220795 (Molecular Pharmaceutics, 2024).

Conditions: decadic logarithm of molar solubility in MCTs; ref Alsenz, J. and Kuentz, M., 2019; cited from earlier work

In order of rising “log10 S [M]” value:
1. O=C(O)c1cc(/N=N/c2ccc(S(=O)(=O)Nc3ccccn3)cc2)ccc1O [sulfasalazine]  -4.24 M
2. COc1ccc(Cl)cc1C(=O)NCCc1ccc(S(=O)(=O)NC(=O)NC2CCCCC2)cc1 [glibenclamide]  -3.62 M
3. CC(=O)OCC(=O)[C@@]1(O)CC[C@H]2[C@@H]3CCC4=CC(=O)CC[C@]4(C)[C@H]3[C@@H](O)C[C@@]21C [hydrocortisone acetate]  -3.54 M
4. CC(C)(C)NCC(O)COc1cccc2c1CC(O)C(O)C2 (stereo not shown) [nadolol]  -3.23 M
5. C[C@@H]1C[C@H]2[C@@H]3CCC4=CC(=O)C=C[C@]4(C)[C@@]3(F)[C@@H](O)C[C@]2(C)[C@@]1(O)C(=O)CO [dexamethasone]  -3.21 M
6. NS(=O)(=O)c1cc(C(=O)O)c(NCc2ccco2)cc1Cl [furosemide]  -3.18 M
7. reserpine  -3.06 M
8. Nc1ccc(S(=O)(=O)Nc2ccnn2-c2ccccc2)cc1 [sulfaphenazole]  -3.03 M
9. O=C1NC(=O)C(c2ccccc2)(c2ccccc2)N1 [phenytoin]  -3.00 M
10. CC(=O)N1CCN(c2ccc(OCC3COC(Cn4ccnc4)(c4ccc(Cl)cc4Cl)O3)cc2)CC1 (stereo not shown) [ketoconazole]  -2.90 M
11. CCc1nc(N)nc(N)c1-c1ccc(Cl)cc1 [pyrimethamine]  -2.65 M
12. COC1=CC(=O)C[C@@H](C)[C@]12Oc1c(Cl)c(OC)cc(OC)c1C2=O [griseofulvin]  -2.59 M
13. CC(=O)Nc1ccc(O)cc1 [paracetamol]  -2.50 M
14. O=C(CCCN1CCC(O)(c2ccc(Cl)cc2)CC1)c1ccc(F)cc1 [haloperidol]  -2.38 M
15. COc1cc2c(c(OC)c1OC)-c1ccc(OC)c(=O)cc1[C@@H](NC(C)=O)CC2 [colchicine]  -2.34 M
16. O=C1C(CC[S+]([O-])c2ccccc2)C(=O)N(c2ccccc2)N1c1ccccc1 (stereo not shown) [sulfinpyrazone]  -2.33 M
17. CN1C(C(=O)Nc2ccccn2)=C(O)c2ccccc2S1(=O)=O [piroxicam]  -2.25 M
18. O=C1[C@H](CC[C@H](O)c2ccc(F)cc2)[C@@H](c2ccc(O)cc2)N1c1ccc(F)cc1 [ezetimibe]  -2.16 M
19. CCCN(CCC)S(=O)(=O)c1ccc(C(=O)O)cc1 [probenecid]  -2.16 M
20. CC(=O)CC(c1ccccc1)c1c(O)c2ccccc2oc1=O (stereo not shown) [warfarin]  -2.14 M
21. COc1ccc2c(c1)c(CC(=O)O)c(C)n2C(=O)c1ccc(Cl)cc1 [indomethacin]  -2.01 M
22. Cc1cccc(Nc2ccccc2C(=O)O)c1C [mefenamic acid]  -1.97 M
23. CCCCNC(=O)NS(=O)(=O)c1ccc(C)cc1 [tolbutamide]  -1.85 M
24. C[C@]12CC[C@H]3[C@@H](CCC4=CC(=O)CC[C@@]43C)[C@@H]1CC[C@@H]2O [testosterone]  -1.56 M
25. Clc1ccccc1C(c1ccccc1)(c1ccccc1)n1ccnc1 [clotrimazole]  -1.45 M
26. CC(=O)[C@H]1CC[C@H]2[C@@H]3CCC4=CC(=O)CC[C@]4(C)[C@H]3CC[C@]12C [progesterone]  -1.05 M
27. CC(C(=O)O)c1ccc(-c2ccccc2)c(F)c1 (stereo not shown) [flurbiprofen]  -0.86 M
28. CC(C)Cc1ccc(C(C)C(=O)O)cc1 (stereo not shown) [ibuprofen]  -0.82 M
29. CCN(CC)CC(=O)Nc1c(C)cccc1C [lidocaine]  -0.71 M

Same assay, conditions: decadic logarithm of molar solubility in MCTs; ref Alskär, L.C., Porter, C.J. and Bergström, C.A., 2016; cited from earlier work

In order of falling “log10 S [M]” value:
1. CCCCN(CCCC)CCC(O)c1cc2c(Cl)cc(Cl)cc2c2cc(C(F)(F)F)ccc12 (stereo not shown) [halofantrine]  -0.70 M
2. CCN(CC)C(=S)SSC(=S)N(CC)CC [disulfiram]  -0.73 M
3. C#C[C@]1(O)CC[C@H]2[C@@H]3CCc4cc(O)ccc4[C@H]3CC[C@@]21C [ethinylestradiol]  -0.83 M
4. CCOC(=O)C1=C(C)NC(C)=C(C(=O)OC)C1c1cccc(Cl)c1Cl (stereo not shown) [felodipine]  -1.16 M
5. O=C(O)c1cc(-c2ccc(F)cc2F)ccc1O [diflunisal]  -1.18 M
6. COc1ccc2cc([C@H](C)C(=O)O)ccc2c1 [naproxen]  -1.38 M
7. O=C(C1CCCCC1)N1CC(=O)N2CCc3ccccc3C2C1 (stereo not shown) [praziquantel]  -1.38 M
8. O=C(Nc1ccc([N+](=O)[O-])cc1Cl)c1cc(Cl)ccc1O [niclosamide]  -2.06 M
9. CC(C)(Oc1ccc(C(=O)c2ccc(Cl)cc2)cc1)C(=O)O [fenofibric acid]  -2.21 M
10. COC(=O)Nc1nc2ccc(Sc3ccccc3)cc2[nH]1 [fenbendazole]  -3.20 M
11. bezafibrate  -3.22 M
12. OCCN(CCO)c1nc(N2CCCCC2)c2nc(N(CCO)CCO)nc(N3CCCCC3)c2n1 [dipyridamole]  -3.56 M
13. CCC(C)n1ncn(-c2ccc(N3CCN(c4ccc(OCC5COC(Cn6cncn6)(c6ccc(Cl)cc6Cl)O5)cc4)CC3)cc2)c1=O (stereo not shown) [itraconazole]  -3.59 M

Same assay, conditions: decadic logarithm of molar solubility in MCTs; ref Wyttenbach, N. 2007, AAPS PharmSci360 Poster W4355; cited from earlier work

For Nc1ccc(S(=O)(=O)Nc2nccs2)cc1 [sulfathiazole], the “log10 S [M]” value is listed as -3.93 M.

Same assay, conditions: decadic logarithm of molar solubility in MCTs; ref Wyttenbach, N., Niederquell, A., Ectors, P. and Kuentz, M., 2022; cited from earlier work

In order of rising “log10 S [M]” value:
1. O=c1[nH]c2ccccc2n1C1CCN(CCCC(c2ccc(F)cc2)c2ccc(F)cc2)CC1 [pimozide]  -2.82 M
2. COc1ccccc1OCCNCC(O)COc1cccc2[nH]c3ccccc3c12 (stereo not shown) [carvedilol]  -2.46 M
3. Cc1ccc(-c2cc(C(F)(F)F)nn2-c2ccc(S(N)(=O)=O)cc2)cc1 [celecoxib]  -1.66 M
